Tested on: Cas-1 in chondrocyte spheroids
Assay: Imaging in chondrocyte 3D cell spheroids
Type: cell-based
Conditions: H2O2 2 mM 30, 60, 90 min; FPy1 5 μM; compared with 2D cultures
Method: The decline in chondrocyte function plays a crucial role in the pathogenesis of OA. Inflammasome-mediated chondrocyte pyroptosis has been closely associated with matrix degradation and cartilage degeneration in OA.[38] To model OA in vitro, primary chondrocytes were stimulated with H2O2 (2 mM) for different durations, followed by staining with FPy1 (5 μM) and fluorescence imaging to monitor the progression of pyroptosis under oxidative stress. […] To better mimic the in vivo pathological features of OA, primary chondrocytes were also cultured as three-dimensional spheroids and stimulated with H2O2. […] Furthermore, we evaluated the capability of FPy1 to monitor pyroptosis progression at different stages of OA in a mouse model. […] The pathological manifestations in the corresponding tissues became more pronounced with longer modeling periods, consistent with the fluorescence imaging results obtained using FPy1. […]
Chondrocytes were isolated from articular cartilage and resuspended in 1mL DMEM/F12 medium containing 10 μM ITS-A. A total of […] were counted and transferred into centrifuge tubes. […]
The chondrocytes or 3D cell spheroids were seeded in dishes and cultured overnight. […] Fluorescence imaging was then performed with an excitation of 514 nm, and signals were […]

–FLTDG– [FPy1, RhoB donor, hNR quencher]
fluorescence enhancement in chondrocyte spheroids: more pronounced fluorescence enhancement in chondrocyte spheroids than in two-dimensional cultures

— PMC12598616, “Design and optimization of caspase-1-responsive fluorescent probes for pyroptosis imaging and anti-pyroptosis drug screening” (Chemical Science, 2025)
